Key:
[1] = system: Primary CLL cells; test: Cell viability assay (MTT) with primary CLL cells; conditions: 48 hours
[2] = system: HT29; test: Cytotoxicity of EA in tumor cell line HT29; type: cell-based; conditions: Homo sapiens, HT-29, mean of at least two experiments
[3] = system: Normal PBMC; test: Cell viability assay (MTT) with normal peripheral blood mononuclear cells; type: cell-based, human; conditions: Homo sapiens; Normal PBMC from five normal individuals; 48 hours; mean
[4] = system: U266; test: Cytotoxicity of EA in tumor cell line U266; type: cell-based; conditions: Homo sapiens, U-266, mean of at least two experiments
[5] = system: lymphoma and myeloma cells; conditions: Schmidt et al., 2009; cited from earlier work
[6] = system: A549; test: Cytotoxicity of EA in tumor cell line A549; type: cell-based; conditions: Homo sapiens, mean of at least two experiments
[7] = system: PC3; test: Cytotoxicity of EA in tumor cell line PC3; type: cell-based; conditions: Homo sapiens, PC-3, mean of at least two experiments

Compound: C=C(CC)C(=O)c1ccc(OCC(=O)O)c(Cl)c1Cl [Compound 1, Ethacrynic acid]
- EC50 ([1]; read-out: CLL Inhibition EC50, CLL survival, MTT): 9.9 µM
- IC50 ([1]; read-out: IC50-EA, Primary CLL cells from nine patients, mean): 8.56 µM
- IC50 [2]: 56 µM
- IC50 [3]: 34.8 µM
- IC50 [4]: 90 µM
- induction of apoptosis [5]: significant induction of apoptosis
- IC50 [6]: 178 µM
- IC50 [7]: 67 µM

Reference: patent US20110306671A1, “AMIDE DERIVATIVES OF ETHACRYNIC ACID” (The Regents of the The University of California, priority 2008, published 2011)
